# Data as given in article PMC5458078, “Global mapping of CARM1 substrates defines enzyme specificity and substrate recognition” (Nature Communications, 2017).
# Test system: CARM1
# Test: 96-spot peptide array in vitro methylation, autoradiography
# Type: biochemical, human
# Details: 96-spot array, 3H-SAM, 30 °C
# Excerpt: Having corroborated the ability of CARM1 to methylate most of the detected substrates, we designed an additional 96-spot peptide array (Fig. 2e and Supplementary Data 3) with two purposes in mind: (1) to examine the significance of surrounding amino acids on CARM1-directed arginine dimethylation, particularly those mutated in human cancers; and (2) to measure PRMT specificity towards respective substrates. The selected sequences encompassed a mixture herein identified and predicted CARM1 substrates (in light blue) and representative cancer-relevant substrates, accompanied by the sequences harbouring mutations detected in human patients[38] (in blue). We also arbitrarily mutated the recognition sequence surrounding R1064 on BAF155 (ref. [20])—the known CARM1 methylation site—to assess the significance of surrounding amino-acid residues to CARM1 activity (four sequence in dark blue). The array also featured 17 known substrates of PRMT1 (in grey), 10 substrates of PRMT5 (in purple) and 4 substrates of PRMT6 (in pink) as positive controls for these enzymes.
# The FL and N-terminal domain-deleted version of human CARM1 cDNAs, and other PRMT FL cDNAs were cloned into pFN21K Halo Tag CMV Flexi mammalian expression vector (Promega, Madison, WI) using the unique Sgfl and Pmel site[55]. To express the protein, DNA constructs were transiently transfected into HEK293T CARM1 KO cells in 15 cm dishes using transIT-LT1 reagent (Mirus Bio, Madison, WI) according to the manufacturer's protocol. Proteins were allowed to express for 48 h. Cell pellets were then collected and lysed in lysis buffer (50 mM HEPES, pH 7.5, 150 mM NaCl, 0.005% NP-40, 0.5 mM EDTA, supplemented with 1 × protease inhibitor cocktail before use). The cells were sonicated on ice using a Branson Sonifier 450 with a microtip at 35% amplitude (10 s on, 30 s off, 6 cycles). The crude lysate was cleared by centrifugation (15,000 r.p.m., 4 °C, 20 min). The cleared lysate was then mixed with pre-washed Halo Link resin (60 μl resin for a 15 cm dish) and incubated with rotation at room temperature for 2 h. The resin was then washed twice with lysis buffer, once with lysis buffer supplemented with 1 M urea and twice with lysis buffer. The recombinant proteins were then eluted with cleavage buffer (lysis buffer supplemented with 1 mM DTT and 20 μg ml^−1 TEV protease) with rotation at room temperature for 2 h. The resin was centrifuged at 3,000 r.p.m. for 5 min, and the supernatant containing the cleaved protein was collected and protein concentration was determined using the Bradford assay (Thermo Scientific, Rockford, IL). Protein purity was assessed by running SDS–PAGE and Coomassie Blue staining.
# Purified recombinant enzyme and substrates were incubated in methylation buffer (50 mM Tris-HCl, pH 8.0, 100 mM NaCl and 0.5 mM EDTA) for 1–4 h at 30 °C in the presence of 1 μl radioactive S-adenosyl-L-[methyl-^3H] methionine. The reaction was stopped by adding 5 × SDS sample buffer and boiling at 99 °C for 5 min. Proteins were resolved by SDS–PAGE. The gel was stained with Coomassie Brilliant Blue (Coomassie Brilliant Blue R-250 0.05% w/v: methanol 50%: acetic acid 10%: H2O 40%) followed by de-staining with dye-free buffer. Fixed gel was then soaked with amplify (GE Healthcare, Waukesha, WI) with gentle shaking at room temperature for 30 min before drying on a Whatman paper at 80 °C and exposing to an X-ray film in dark at −80 °C. Protein methylation was detected by autoradiography.
# For methylation assays using the peptide array, 16 or 20 μg purified recombinant CARM1 or same molar concentration of the other PRMTs (for 96-spot and 192-spot arrays, respectively) was mixed well with 40 μl radioactive S-adenosyl-L-[methyl-^3H] methionine, 80 μl 5 × methylation buffer and ddH2O to achieve a final volume of 200 or 400 μl reaction (for 96-spot and 192-spot arrays, respectively). The Celluspot peptide arrays were customized and produced by Intavis Bioanalytical Instruments, Germany. […]
row,Sequence,Methylation by CARM1 of mutated peptide vs wild-type sequence
1,YGSQTPQRCPMTMQG [ARID1A (R429) Y430C],significantly reduced methylation by CARM1
2,PGNILGARVPLTAPN [BAF155 (R1064) P1063A],nearly abolished methylation by CARM1
3,PGNILAPRVPLTAPN [BAF155 (R1064) G1062A],nearly abolished methylation by CARM1
4,PGNILGPRVALTAPN [BAF155 (R1064) P1066A],nearly abolished methylation by CARM1
5,YGSQTPQRYQMTMQG [ARID1A (R429) P431Q],significantly reduced methylation by CARM1
6,VQSLCDTRFHFQQRA [TET2 (R680) G678D],significantly reduced methylation by CARM1
7,DPYRPVRLQMQKLPT [MED12 (R1862) P1864Q],significantly reduced methylation by CARM1
